Test results as given in EP4667458A1 (Kanaph Therapeutics Inc., priority 2023, dated 2024).

Columns and labels:
[1] = target: T1, SOS1 (Homo sapiens, UniProt Q07889); experiment: SOS-catalyzed nucleotide exchange assay (HTRF, SOS1-mediated GTP loading of KRAS G12D); type: biochemical; conditions: GST-KRAS G12D, HIS-SOS1cat, EDA-GTP-DY-647P1; compound 128 pM to 10 µM; read-out: SOS-catalyzed nucleotide exchange assay (IC50 range, Grade)
T1 construct: adding equal amounts of HIS-SOS1cat (160 nM; Cytoskeleton, US); His; purchased Cytoskeleton, US
T1 sequence (Q07889 564-1049 limits assumed): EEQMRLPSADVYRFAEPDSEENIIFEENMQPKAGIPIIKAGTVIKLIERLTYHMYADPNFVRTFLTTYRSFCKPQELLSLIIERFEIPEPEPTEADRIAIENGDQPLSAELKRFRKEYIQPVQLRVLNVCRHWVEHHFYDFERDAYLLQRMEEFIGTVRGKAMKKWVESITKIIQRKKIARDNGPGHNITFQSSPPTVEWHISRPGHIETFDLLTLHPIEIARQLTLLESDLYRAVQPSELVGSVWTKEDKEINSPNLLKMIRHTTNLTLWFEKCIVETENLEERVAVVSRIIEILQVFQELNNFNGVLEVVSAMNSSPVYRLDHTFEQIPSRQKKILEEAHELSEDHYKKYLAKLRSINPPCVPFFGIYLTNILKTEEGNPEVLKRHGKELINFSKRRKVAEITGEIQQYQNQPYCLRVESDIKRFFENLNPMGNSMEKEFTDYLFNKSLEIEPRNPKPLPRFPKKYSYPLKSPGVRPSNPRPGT
In short: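 SOS1cat (HIS-tagged) preincubated 10 min at room temperature with compound (128 pM-10 µM), then GST-KRAS G12D with anti-GST terbium added; GTP loading tracked as HTRF with a DY-647P1 GTP analogue after 30 min, buffer HEPES pH 7.4. GEF-free wells for normalization; IC50 derived.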

[2] = target: T2, KRAS^G12C::SOS1 (Homo sapiens, UniProt Q07889); experiment: KRAS G12C::SOS1 protein-protein interaction (PPI) inhibition assay (HTRF binding kit)
T2 sequence (Q07889 1-1333): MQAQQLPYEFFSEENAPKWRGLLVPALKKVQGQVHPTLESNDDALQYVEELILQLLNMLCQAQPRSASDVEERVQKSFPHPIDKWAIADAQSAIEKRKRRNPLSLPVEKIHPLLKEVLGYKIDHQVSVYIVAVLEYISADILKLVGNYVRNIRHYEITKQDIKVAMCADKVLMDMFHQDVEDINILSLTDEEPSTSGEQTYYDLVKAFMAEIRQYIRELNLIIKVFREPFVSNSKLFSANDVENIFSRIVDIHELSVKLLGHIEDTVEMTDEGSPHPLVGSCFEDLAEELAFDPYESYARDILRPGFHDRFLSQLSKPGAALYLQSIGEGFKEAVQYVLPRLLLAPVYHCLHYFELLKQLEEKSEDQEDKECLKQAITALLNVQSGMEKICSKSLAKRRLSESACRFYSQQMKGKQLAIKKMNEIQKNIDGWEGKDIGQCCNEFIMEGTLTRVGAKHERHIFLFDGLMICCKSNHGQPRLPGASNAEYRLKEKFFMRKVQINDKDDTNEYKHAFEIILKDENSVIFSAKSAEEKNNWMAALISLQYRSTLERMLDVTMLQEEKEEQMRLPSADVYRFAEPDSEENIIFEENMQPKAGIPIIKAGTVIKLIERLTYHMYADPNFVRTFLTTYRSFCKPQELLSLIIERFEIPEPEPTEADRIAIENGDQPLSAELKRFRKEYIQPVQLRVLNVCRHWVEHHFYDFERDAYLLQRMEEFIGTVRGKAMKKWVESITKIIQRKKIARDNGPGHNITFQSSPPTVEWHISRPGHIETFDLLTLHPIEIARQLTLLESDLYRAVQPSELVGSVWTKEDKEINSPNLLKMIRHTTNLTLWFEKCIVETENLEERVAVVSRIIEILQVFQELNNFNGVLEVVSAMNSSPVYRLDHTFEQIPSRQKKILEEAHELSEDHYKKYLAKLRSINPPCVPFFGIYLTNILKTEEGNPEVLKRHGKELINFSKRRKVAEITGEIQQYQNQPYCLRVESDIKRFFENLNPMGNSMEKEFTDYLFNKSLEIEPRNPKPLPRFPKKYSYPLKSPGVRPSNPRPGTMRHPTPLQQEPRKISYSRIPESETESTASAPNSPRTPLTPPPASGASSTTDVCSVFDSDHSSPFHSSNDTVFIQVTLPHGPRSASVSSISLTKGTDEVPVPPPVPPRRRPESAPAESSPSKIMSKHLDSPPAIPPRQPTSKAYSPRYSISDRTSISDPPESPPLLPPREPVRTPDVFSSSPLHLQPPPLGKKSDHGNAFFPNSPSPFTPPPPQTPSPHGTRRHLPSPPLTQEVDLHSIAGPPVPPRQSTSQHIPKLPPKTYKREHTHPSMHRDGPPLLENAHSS

| IC50 [1] [nM] | IC50 [2] [nM] | SMILES |
| --- | --- | --- |
| < 1000 | < 1000 | C[C@@H](NC(=O)c1ccc(=O)n(-c2cccnc2F)n1)c1cccc(C(F)(F)CO)c1F [Example 141, N-[(1R)-1-[3-(1,1-difluoro-2-hydroxy-ethyl)-2-fluorophenyl]ethyl]-1-(2-fluoro-3-pyridyl)-6-oxo-pyridazine-3-carboxamide] |
| < 1000 | < 1000 | C[C@@H](NC(=O)c1ccc(=O)n(-c2cncc(-c3cnnn3C)c2)c1)c1cccc(C(F)(F)F)c1F [Example B08, N-[(1R)-1-[2-fluoro-3-(trifluoromethyl)phenyl]ethyl]-1-[5-(3-methyltriazol-4-yl)-3-pyridyl]-6-oxo-pyridine-3-carboxamide] |
| < 1000 | < 1000 | C[C@@H](NC(=O)c1ccc(=O)n(-c2cncc(-c3cnnn3C)c2)n1)c1cccc(C(F)F)c1F [Example B02, N-[(1R)-1-[3-(difluoromethyl)-2-fluoro-phenyl]ethyl]-1-[5-(3-methyltriazol-4-yl)-3-pyridyl]-6-oxo-pyridazine-3-carboxamide] |
| < 1000 | < 1000 | [2H]C([2H])([2H])n1nncc1-c1cncc(-n2nc(C(=O)N[C@H](C)c3cccc(C(F)(F)F)c3F)ccc2=O)c1 [Example B11, N-[(1R)-1-[2-fluoro-3-(trifluoromethyl)phenyl]ethyl]-6-oxo-1-[5-[3-(trideuteriomethyl)triazol-4-yl]-3-pyridyl]pyridazine-3-carboxamide] |

The next lines start with the compound.

| SMILES | IC50 [1] [nM] | IC50 [2] [nM] |
| --- | --- | --- |
| C[C@@H](NC(=O)c1ccc(=O)n(-c2cc(CO)ccc2F)n1)c1cc(N)cc(C(F)(F)F)c1 [Example 159, N-[(1R)-1-[3-amino-5-(trifluoromethyl)pheny 1]ethyl]-1-[2-fluoro-5-(hydroxymethyl)phenyl] -6-oxo-pyridazine-3-carboxamide] | < 1000 | < 1000 |
| COc1ccc(-n2nc(C(=O)N[C@H](C)c3cccc(C(F)(F)CO)c3F)ccc2=O)c(OC)c1 [Example 151, N-[(1R)-1-[3-(1,1-difluoro-2-hydroxy-ethyl)-2-fluoro-phenyl]ethyl]-1-(2,4-dimethoxyphenyl)-6-oxo-pyridazine-3-carboxamide] | < 1000 | < 1000 |
| CC(C)Oc1ccc(-n2nc(C(=O)N[C@H](C)c3cc(N)cc(C(F)(F)F)c3)ccc2=O)cc1 [Example 142, N-[(1R)-1-[3-amino-5-(trifluoromethyl)phenyl]ethyl]-1-(4-isopropoxyphenyl)-6-oxo-pyridazine-3-carboxamide] | < 1000 | < 1000 |
| COc1ccc(-n2nc(C(=O)N[C@H](C)c3cc(N)cc(C(F)(F)F)c3)ccc2=O)c(F)c1 [Example 152, N-[(1R)-1-[3-amino-5-(trifluoromethyl)phenyl]ethyl]-1-(2-fluoro-4-methoxy-phenyl)-6-oxo-pyridazine-3-carboxamide] | < 1000 | < 1000 |
| C[C@@H](NC(=O)c1ccc(=O)n(-c2cccc(F)c2)n1)c1cc(N)cc(C(F)(F)F)c1 [Example 158, N-[(1R)-1-[3-amino-5-(trifluoromethyl)phenyl]ethyl]-1-(3-fluorophenyl)-6-oxo-pyridazine-3-carboxamide] | < 1000 | < 1000 |
| C[C@@H](NC(=O)c1ccc(=O)n(-c2ccccc2OC(F)F)n1)c1cccc(C(F)(F)CO)c1F [Example 143, N-[(1R)-1-[3-(1,1-difluoro-2-hydroxy-ethyl)-2-fluoro-phenyl]ethyl]-1-[2-(difluoromethoxy)phenyl]-6-oxo-pyridazine-3-carboxamide] | < 1000 | < 1000 |
| COc1ccc(-n2cc(C(=O)N[C@H](C)c3cccc(C(F)(F)CO)c3F)ccc2=O)c(F)c1OC [Example 140, N-[(1R)-1-[3-(1,1-difluoro-2-hydroxy-ethyl)-2-fluoro-phenyl]ethyl]-1-(2-fluoro-3,4-dimethoxy-phenyl)-6-oxo-pyridine-3-carboxamide] | < 1000 | < 1000 |
